Measured values taken from ChEMBL document CHEMBL1137071, “Phenyl thiazolyl urea and carbamate derivatives as new inhibitors of bacterial cell-wall biosynthesis” (Bioorg Med Chem Lett, 2004).
Converted amounts (≈) assume the structure as drawn.

How the values were obtained:
Assay type in all cases: functional
[1] = tested on: Enterococcus faecalis; assay: Antimicrobial activity against Enterococcus faecalis GC 2242 (VRE); Not active; 0.5-8
[2] = tested on: Escherichia coli; assay: Antimicrobial activity against Escherichia coli GC 4559; Not active; 0.5-8
[3] = tested on: Escherichia coli; assay: Antimicrobial activity against Escherichia coli GC 4560; Not active; 0.5-8
[4] = tested on: Enterococcus faecalis; assay: Antimicrobial activity against Enterococcus faecalis GC 4555 (ATCC); Not active; 0.5-8
[5] = Inhibitory activity against MurB
[6] = tested on: Staphylococcus aureus; assay: Antimicrobial activity against Staphylococcus aureus GC 1131 (MRSA); Not active; 0.5-8
[7] = tested on: Staphylococcus aureus; assay: Antimicrobial activity against Staphylococcus aureus GC 2216 (ATCC); Not active; 0.5-8
[8] = tested on: Staphylococcus; assay: Antimicrobial activity against MSCNS (methicillin-susceptible coagulase-negative staphylococci) GC 646; Not active; 0.5-8
[9] = tested on: Staphylococcus aureus; assay: Antimicrobial activity against Staphylococcus aureus GC 4543 (MSSA); Not active; 0.5-8
[10] = tested on: Streptococcus pneumoniae; assay: Antimicrobial activity against Streptococcus pneumoniae GC1894 (PRSP) in the presence of 4% bovine serum albumin; Not active; 0.5-8
[11] = tested on: Streptococcus pneumoniae; assay: Antimicrobial activity against Streptococcus pneumoniae GC1894 (PRSP); Not active; 0.5-8
[12] = tested on: Enterococcus faecalis; assay: Antimicrobial activity against Enterococcus faecalis GC 2242 (VRE); Not active; 32-128
[13] = tested on: Escherichia coli; assay: Antimicrobial activity against Escherichia coli GC 4559; Not active; 32-128
[14] = tested on: Escherichia coli; assay: Antimicrobial activity against Escherichia coli GC 4560; Not active; 32-128
[15] = tested on: Enterococcus faecalis; assay: Antimicrobial activity against Enterococcus faecalis GC 4555 (ATCC); Not active; 32-128
[16] = tested on: Staphylococcus aureus; assay: Antimicrobial activity against Staphylococcus aureus GC 1131 (MRSA); Not active; 32-128
[17] = tested on: Staphylococcus; assay: Antimicrobial activity against MSCNS (methicillin-susceptible coagulase-negative staphylococci) GC 646; Not active; 32-128
[18] = tested on: Staphylococcus aureus; assay: Antimicrobial activity against Staphylococcus aureus GC 2216 (ATCC); Not active; 32-128
[19] = tested on: Staphylococcus aureus; assay: Antimicrobial activity against Staphylococcus aureus GC 4543 (MSSA); Not active; 32-128
[20] = tested on: Streptococcus pneumoniae; assay: Antimicrobial activity against Streptococcus pneumoniae GC1894 (PRSP) in the presence of 4% bovine serum albumin; Not active; 32-128
[21] = tested on: Streptococcus pneumoniae; assay: Antimicrobial activity against Streptococcus pneumoniae GC1894 (PRSP); Not active; 32-128
[22] = tested on: Enterococcus faecalis; assay: Antimicrobial activity against Enterococcus faecalis GC 2242 (VRE); Not active; 1-4
[23] = tested on: Escherichia coli; assay: Antimicrobial activity against Escherichia coli GC 4559; Not active; 1-4
[24] = tested on: Escherichia coli; assay: Antimicrobial activity against Escherichia coli GC 4560; Not active; 1-4
[25] = tested on: Enterococcus faecalis; assay: Antimicrobial activity against Enterococcus faecalis GC 4555 (ATCC); Not active; 1-4
[26] = tested on: Staphylococcus aureus; assay: Antimicrobial activity against Staphylococcus aureus GC 1131 (MRSA); Not active; 1-4
[27] = tested on: Staphylococcus; assay: Antimicrobial activity against MSCNS (methicillin-susceptible coagulase-negative staphylococci) GC 646; Not active; 1-4
[28] = tested on: Staphylococcus aureus; assay: Antimicrobial activity against Staphylococcus aureus GC 2216 (ATCC); Not active; 1-4
[29] = tested on: Streptococcus pneumoniae; assay: Antimicrobial activity against Streptococcus pneumoniae GC1894 (PRSP) in the presence of 4% bovine serum albumin; Not active; 1-4
[30] = tested on: Streptococcus pneumoniae; assay: Antimicrobial activity against Streptococcus pneumoniae GC1894 (PRSP); Not active; 1-4
[31] = tested on: Staphylococcus aureus; assay: Antimicrobial activity against Staphylococcus aureus GC 4543 (MSSA); Not active; 1-4
[32] = tested on: Enterococcus faecalis; assay: Antimicrobial activity against Enterococcus faecalis GC 2242 (VRE); Not active; 16->128
[33] = tested on: Escherichia coli; assay: Antimicrobial activity against Escherichia coli GC 4559; Not active; 16->128
[34] = tested on: Escherichia coli; assay: Antimicrobial activity against Escherichia coli GC 4560; Not active; 16->128
[35] = tested on: Enterococcus faecalis; assay: Antimicrobial activity against Enterococcus faecalis GC 4555 (ATCC); Not active; 16->128
[36] = tested on: Staphylococcus aureus; assay: Antimicrobial activity against Staphylococcus aureus GC 1131 (MRSA); Not active; 16->128
[37] = tested on: Staphylococcus; assay: Antimicrobial activity against MSCNS (methicillin-susceptible coagulase-negative staphylococci) GC 646; Not active; 16->128
[38] = tested on: Staphylococcus aureus; assay: Antimicrobial activity against Staphylococcus aureus GC 2216 (ATCC); Not active; 16->128
[39] = tested on: Staphylococcus aureus; assay: Antimicrobial activity against Staphylococcus aureus GC 4543 (MSSA); Not active; 16->128
[40] = tested on: Streptococcus pneumoniae; assay: Antimicrobial activity against Streptococcus pneumoniae GC1894 (PRSP) in the presence of 4% bovine serum albumin; Not active; 16->128
[41] = tested on: Streptococcus pneumoniae; assay: Antimicrobial activity against Streptococcus pneumoniae GC1894 (PRSP); Not active; 16->128

O=C(Nc1ccc(Cl)c(Cl)c1)Nc1ccccn1
MIC [1]: 8 µg/mL (≈ 28.4 µM) | MIC [2]: 8 µg/mL (≈ 28.4 µM) | MIC [3]: 8 µg/mL (≈ 28.4 µM) | MIC [4]: 8 µg/mL (≈ 28.4 µM) | IC50 [5]: 17 µg/mL (≈ 60.3 µM) | MIC [6]: 8 µg/mL (≈ 28.4 µM) | MIC [7]: 8 µg/mL (≈ 28.4 µM) | MIC [8]: 8 µg/mL (≈ 28.4 µM) | MIC [9]: 8 µg/mL (≈ 28.4 µM) | MIC [10]: 8 µg/mL | MIC [11]: 8 µg/mL (≈ 28.4 µM)

O=C(Nc1ccc(Cl)c(Cl)c1)Nc1cccc2cccnc12
MIC [12]: > 128 µg/mL | MIC [13]: > 128 µg/mL | MIC [14]: > 128 µg/mL | MIC [15]: > 128 µg/mL | IC50 [5]: > 25 µg/mL | MIC [16]: > 128 µg/mL | MIC [17]: > 128 µg/mL | MIC [18]: > 128 µg/mL | MIC [19]: > 128 µg/mL | MIC [20]: > 128 µg/mL | MIC [21]: > 128 µg/mL

COC(=O)c1cnn(C)c1NC(=O)Nc1ccc(Cl)c(Cl)c1
MIC [22]: 4 µg/mL (≈ 11.7 µM) | MIC [23]: 4 µg/mL (≈ 11.7 µM) | MIC [24]: 4 µg/mL (≈ 11.7 µM) | MIC [25]: 4 µg/mL (≈ 11.7 µM) | IC50 [5]: 23 µg/mL (≈ 67 µM) | MIC [26]: 4 µg/mL (≈ 11.7 µM) | MIC [27]: 4 µg/mL (≈ 11.7 µM) | MIC [28]: 4 µg/mL (≈ 11.7 µM) | MIC [29]: 4 µg/mL | MIC [30]: 4 µg/mL (≈ 11.7 µM) | MIC [31]: 4 µg/mL (≈ 11.7 µM)

O=C(Nc1ccc(Cl)c(Cl)c1)Nc1nncs1
MIC [32]: > 128 µg/mL | MIC [33]: > 128 µg/mL | MIC [34]: > 128 µg/mL | MIC [35]: > 128 µg/mL | IC50 [5]: > 25 µg/mL | MIC [36]: > 128 µg/mL | MIC [37]: > 128 µg/mL | MIC [38]: > 128 µg/mL | MIC [39]: > 128 µg/mL | MIC [40]: > 128 µg/mL | MIC [41]: > 128 µg/mL
